Test results reported in patent publication US12383579B2, “Materials and methods of using an inhibitor of plasminogen activation to treat anastomotic leak” (THE UNIVERSITY OF CHICAGO, priority 2018, dated 2025).
Entries after “also recorded” stand apart in the source; their conditions may differ.

Columns and labels:
[1] = system: RAW macrophages; test: PLG activation by RAW macrophages stimulated with E44 conditioned media; format: cell-based, murine; settings: TXA 10 mM, PLG 250 nm, 4 hours
Experimental: (A), E. faecalis E44 was grown in TY media overnight, and cell-free conditioned media (E44s) was applied to RAW macrophages for 4 hours. PLG, 250 nm, was included in the reaction. TXA, 10 mM, was added when needed. PLG activation was measured by fluorogenic substrate cleavage. “RAW” column is naïve RAW. *p<0.05, n=6/group. (B), Conditioned media after co-interaction of macrophages with E. faecalis E44 (named RAW/E44s) was applied to naïve RAW macrophages for 4 hours. PLG, 250 nm, and MMP9, 1 nM, were in all reactions. TXA, 10 mM, was added when needed. “RAW+RAWs” column is naïve macrophages incubated with conditioned media of RAW macrophages (no E. faecalis E44). *p<0.05, n=6/group.
RAW 264.7 or J774 murine macrophages were incubated at 37° C. and 5% CO2 in Dulbecco's modified eagle media (DMEM) with 10% fetal bovine serum, penicillin/streptomycin and antifungals during growth. For plasmin activity assays, cells were plated at 10^4 cells/well on a 96-well plate in phenol-free DMEM with 1% FBS. Added bacteria were in low volumes of TY.
RAW 267.4 murine macrophages are co-incubated with E44, reasoning that bacteria and macrophages regularly co-interact in healing gut tissue. […] To confirm the expectation, naïve macrophages were stimulated with conditioned media from E44 overnight culture.

[2] = system: FITC-labeled PLG binding to E. faecalis V583 cell surface; test: Flow cytometric evaluation of FITC-PLG binding to E. faecalis; design: species or system Enterococcus faecalis; settings: for geometric mean fluorescence intensity of cells (surface-bound FITC-PLG): 1768 in the absence of TXA
Experimental: Flow cytometric evaluation of PLG binding. PLG binding to the bacterial surface was measured as previously described, with minor modifications (52′). Bacteria were grown overnight in TY. Cultures were diluted to a final density of roughly 8×10^6 CFU/mL. […] Cells were pelleted, washed three times with PBS, and resuspended. Fluorescence was analyzed using an Imagestream ISX flow cytometer. Enterococci were detected using log-forward and log-side scatter dot plots, and a gating region was set to exclude debris and aggregates of bacteria. Bacteria were analyzed for FITC-range fluorescence using log-scale amplification, of which the geometric mean fluorescence intensity was recorded as a measure for PLG binding. FITC-range fluorescent signal was confirmed by light and fluorescent microscopy of each event.
Flow cytometry was performed after incubation of V583 with FITC-labeled PLG as before. 80.9% of cells reached a subjectively determined threshold for surface-bound FITC-PLG. […] The effect was concentration-dependent and statistically significant (FIG. 37D).

[3] = system: E. faecalis; test: E. faecalis growth (OD600 over four hours); format: cell-based, Enterococcus faecalis; settings: TXA added to culture medium
Source text: FIG. 44. […] Figures are representative of three separate experiments, each run in triplicate. Error bars indicate means±SD.

[4] = system: E. faecalis; test: Intrinsic bacterial type IV collagen degradation in the absence of PLG; format: biochemical, Enterococcus faecalis
Experimental: Collagen degradation. Assays were performed per the manufacturer's instructions as previously described with slight modifications (51′). Bacteria were grown overnight in TY. Optical density was normalized to 0.1 through dilution. Bacteria were then incubated with fluorescein-labeled type I collagen, type IV collagen, or gelatin according to the manufacturer's instructions (ThermoFisher), human PLG at 250 nM and TXA. Total reaction volume was 200 L. The incubation proceeded at 37° C. for 5 hours to allow for bacterial attachment to collagen and PLG binding. uPA was added and the incubation proceeded for an additional hour. Change in fluorescence over time at 480/520 nm was determined kinetically over the initial 30 minutes of the reaction.

[5] = system: E. faecalis E44-induced AL; test: Mouse model of E44-induced anastomotic leak; format: in vivo, C57BL/6 mice
Experimental: The role of activated plasminogen (PLG) in anastomotic leak. […] Co-incubation of E44 with murine macrophages ([…]) was performed for studies involving conditioned media. Twenty-week-old male C57BL/6 mice underwent the validated model of E44-induced AL that includes preoperative antibiotics to defaunate the colon, surgical transection and anastomosis of the colon and introduction of E44 in 10% glycerol to the surgical site via rectal enema on postoperative day 1. […] Anastomotic healing was assessed blindly using a validated anastomotic healing score (AHS): 0=uncomplicated healing, 1=flimsy adhesions, 2=dense adhesions, 3=abscess, and 4=gross anastomotic disruption. AL was defined as AHS 3 or above.

[6] = biological target: T1, P. aeruginosa MPAO1-P2 plasminogen activation (Homo sapiens, UniProt P00747); test: PLG activation by P. aeruginosa; format: biochemical; settings: TY 1:1 with PBS (10 mM phosphate), or water plus 10 mM TXA, versus water alone
T1 construct: 250 nM human glu-plasminogen (Haematologic technologies); purchased Haematologic technologies
Experimental: Plasminogen/uPA activity. Plasmin activity assays were performed as previously described with minor modifications, and fluorescence data was analyzed per the manufacturer's instructions (50′). Incubation times were optimized for bacteria at low optical density to limit internal filter effects in fluorescence-based assays. Bacteria (when included) were grown overnight in TY media. OD600 was normalized by dilution to 0.1, equivalent to 8×10^7 CFU/mL. Samples at OD 0.1 were diluted 1:10 in the final reaction through the addition of media and dissolved substrates. Bacteria were incubated with 250 nM human glu-plasminogen (Haematologic technologies) for two hours at 37° C. TXA (Fisher) was added concomitantly with PLG. A final concentration of 4 nM uPA (Biovision) or pro-uPA (Biovision) was added and incubation proceeded for 20 minutes. A final concentration of 6 M fluorogenic substrate specific for plasmin (H-D-Val-Leu-Lys-AFC, AnaSpec) was added immediately prior to a kinetic fluorescent read with excitation wavelength 380 nm and emission wavelength 500 nm. Reads were conducted every 15 to 30 seconds over the course of 30 minutes. For assays of uPA activity, PLG was omitted from the incubation and a substrate specific to uPA (Z-Gly-Gly-Arg-AMC, Bachem) was used. When assays were performed in human plasma, fluorescence was read for 120 minutes total. […]

[7] = system: collagenolytic E. faecalis; test: Quantitative culture of collagenolytic E. faecalis after V583-induced AL

T1 sequence (P00747 20-810): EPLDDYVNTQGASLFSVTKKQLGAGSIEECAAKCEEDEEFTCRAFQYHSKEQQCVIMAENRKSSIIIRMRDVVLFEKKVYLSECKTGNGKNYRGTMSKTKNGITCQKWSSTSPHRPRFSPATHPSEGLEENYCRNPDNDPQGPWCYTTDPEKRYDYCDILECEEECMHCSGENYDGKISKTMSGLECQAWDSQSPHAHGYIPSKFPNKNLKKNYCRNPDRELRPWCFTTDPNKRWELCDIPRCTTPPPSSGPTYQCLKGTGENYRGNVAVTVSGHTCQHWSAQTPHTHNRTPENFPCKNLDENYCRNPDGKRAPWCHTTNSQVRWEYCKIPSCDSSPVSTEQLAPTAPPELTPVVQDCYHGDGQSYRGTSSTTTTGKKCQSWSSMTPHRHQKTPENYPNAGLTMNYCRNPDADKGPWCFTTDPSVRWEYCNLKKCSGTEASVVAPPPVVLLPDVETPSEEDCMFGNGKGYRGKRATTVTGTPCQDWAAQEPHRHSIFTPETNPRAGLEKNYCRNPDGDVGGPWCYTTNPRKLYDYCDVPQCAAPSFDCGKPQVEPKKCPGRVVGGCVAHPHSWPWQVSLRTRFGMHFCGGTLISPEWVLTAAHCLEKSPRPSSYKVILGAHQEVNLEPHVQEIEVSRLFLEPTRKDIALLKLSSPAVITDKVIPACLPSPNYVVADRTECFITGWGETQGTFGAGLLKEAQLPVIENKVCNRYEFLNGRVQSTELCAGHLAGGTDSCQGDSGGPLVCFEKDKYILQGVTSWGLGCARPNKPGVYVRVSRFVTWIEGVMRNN

`NC[C@H]1CC[C@H](C(=O)O)CC1` [TXA, tranexamic acid] was tested, and the “PLG activation by macrophages stimulated with E44 conditioned media” value [1] was “This effect was inhibited”, the “geometric mean fluorescence intensity of cells (surface-bound FITC-PLG)” value ([2]; 2 mM TXA) was 936 and the “geometric mean fluorescence intensity of cells (surface-bound FITC-PLG)” value ([2]; 10 mM TXA) was 77. For the same compound, the “surface binding of FITC-PLG by E. faecalis” value ([2]; flow cytometry and single-cell microscopy) was “decrease in surface binding of FITC-PLG; also recorded: Fluorescent signal was not present”, the “bacterial growth (change in OD600 over four hours)” value [3] was “no effect on bacterial growth” and the “intrinsic bacterial type IV collagen degradation activity” value [4] was “no effect”. The “overall healing (AHS) compared to vehicle control” value ([5]; TXA 0.75 mg/kg rectal enema POD 1, 2 and 3, POD 8) was “significantly superior”, the “mean anastomotic healing score (AHS)” value ([5]; TXA 0.75 mg/kg rectal enema, scored postoperative day 8, vehicle 2.8) was 1.4 and the “PLG activation by P. aeruginosa” value [6] was “significantly attenuated”. For the same compound, the “PLG activation by P. aeruginosa” value ([6]; listed as Tranexamic acid) was “inhibits”, the “collagenolytic E. faecalis in anastomotic luminal contents” value ([7]; POD 3, versus water enema) was “significantly decreased” and the “CFU/mg collagenolytic E. faecalis in anastomotic tissue” value ([7]; POD 8, versus water enema) was “significantly fewer”. The “collagenolytic E. faecalis in anastomotic luminal contents” value ([7]; POD 8, versus water enema) was “persisted but did not reach statistical significance” and the “CFU/mg collagenolytic E. faecalis in anastomotic tissue” value ([7]; day 3, versus water enema) was “no difference was observed”.
